Paper PMC7961786, “Magic Peptide: Unique Properties of the LRR11 Peptide in the Activation of Leukotriene Synthesis in Human Neutrophils” (International Journal of Molecular Sciences, 2021)

What was measured:
[1] = test system: human neutrophils (PMNLs), 5-LOX product synthesis; assay: 5-LOX metabolite synthesis in human neutrophils stimulated with opsonized S. typhimurium (HPLC); assay type: cell-based
Method: Figure 1 Effects of LRR11 and ODNs on the formation of LTB4 (A,B) and the sum of 5-LOX metabolites (ω-OH-LTB4, LTB4 and its isomers, and 5-HETE) (C) in human PMNLs. PMNLs (2 × 10^7) were incubated for 15 min at 37 °C without (black bars) or with 1 μM LRR11 (A, LRR11_first); then ODNs and LRR11 or LPS were added; various ways of adding ODN and LRR11 peptide are indicated. In control samples, Hanks’ solution was added instead of ODNs. After 20 min, 0.5 × 10^9 S. typhimurium bacterial cells were added for a further 15 min. The 5-LOX products were determined using HPLC. Values indicate mean ± SEM of five independent experiments performed in duplicate. * p < 0.05, ** p < 0.01, *** p < 0.005, compared with the control. # p < 0.05, ## p < 0.01 for pairs of data compared as indicated by two-way ANOVA followed by Tukey’s multiple comparison test.
Figure 3 Synthesis of the 5-LOX metabolites in PMNLs exposed to opsonized S. typhimurium bacteria in the presence of the RAGE antagonist FPS-ZM1. PMNLs (2 × 10^7) were incubated for 15 min at 37 °C without additives or with 0.15 µM FPS-ZM1, for the next 20 min the mixture was incubated with 1 µM ODNs without (black bars) or with 1 µM LRR11 (gray bars) before adding 5 × 10^8 S. typhimurium for 15 min. In control samples, Hanks’ solution was added instead of ODNs. The 5-LOX products were determined using HPLC. Graphical data are presented for LTB4 (A) or the sum of LTB4 and its isomers, ω-OH-LTB4 and 5-HETE, designed as Σ5LOX products (B).
Human neutrophils were isolated from freshly taken citrate-anticoagulated peripheral blood from healthy individuals using standard methods. Leukocyte-rich plasma was prepared by sedimentation of erythrocytes with 3% dextran T-500 at room temperature. For purification of granulocytes, centrifugation through Ficoll-Paque (density 1.077 g/mL) was used, followed by hypotonic lysis of the remaining erythrocytes. […] All methods were performed in accordance with the relevant instructions and regulations of the Ministry of Health of the Russian Federation and local legislation.
Bacteria (S. typhimurium IE 147 strain) obtained from the Collection of Gamaleya National Research Center of Epidemiology and Microbiology (Moscow, Russia) were grown in Luria–Bertani broth to a concentration of 1 × 10^9 colony-forming units (CFU)/mL. The bacteria were collected by centrifugation at 2000 g and opsonized immediately before the experiment for 30 min in 20% (v/v) fresh serum from the same donor whose blood was used to isolate neutrophils. Repeated centrifugation in Dulbecco’s solution was used to wash the bacteria.
The cell suspension (2 × 10^7 PMNLs in HBSS/HEPES, reaction volume of 6 mL) was cultured for 15 min in an incubator at 37 °C, 5% CO2. Then 1.0 µM ODN with or without 1.0 µM LRR11, or 2 µg/mL LPS, was added as indicated. After 20 min, the cells were stimulated with S. typhimurium (the ratio of bacteria to PMNLs was approximately 20:1) for the next 15 min [3]. The synthesis of 5-LOX metabolites was stopped by adding an equal volume of methanol at −20 °C with prostaglandin B2 as an internal standard. Samples were stored at −20 °C. The denatured cell suspension was centrifuged, and supernatants designated as water/methanol extracts.
To purify the water/methanol extracts, solid-phase extraction was used on Sep-Pak C18 cartridges (500 mg; Macherey-Nagel, Dueren, Germany), which were conditioned first with methanol, and then with water. Major 5-LOX metabolites were identified by comparing retention times with those of known compounds, as previously described.
Table S1. Effect of Chloroquine on 5-LOX product formation in PMNLs after ODN priming followed by the addition
of opsonized S. typhimurium bacteria.

[2] = test system: RAGE; settings: ref [53]; cited from earlier work
Text: Most likely, CpG-ODN can serve as a linker between various receptor molecules of neutrophils. We hypothesize that some receptors on the cell surface have a multivalent ability to bind a broad spectrum of ligands, including ODNs, and that the stimulatory action of LRR11 on the CpG-ODNs may be related to cooperation with other receptors on the neutrophil surface.

[3] = test system: 5′-biotinylated B-CpG; assay: TSM acoustic biosensor, peptide binding to immobilized B-CpG
Text: To characterize the interaction of the studied synthetic ODNs with the LRR11 peptide, we applied the thickness shear mode (TSM) acoustic biosensor method, which is based on the investigation of ultrasonic waves in piezoelectric materials such as AT-cut quartz. This approach involved immobilizing a 5′-biotinylated ODN on the surface of TSM transducer covered by NeutrAvidin and then adding the LRR11 peptide. An unrelated peptide (URP) with a random primary structure ([…]) was used as a negative control. The measurement procedure was divided into several steps, in which each immobilization stage was followed by washing with an appropriate buffer solution; when peptide solutions at different concentrations (from 1 to 100 nM) were added to the surface-modified TSM transducer, a wash with Hanks buffer was used before increasing the peptide concentration.
Based on Langmuir isotherm Equation (1), (1) Δfcc=Δfsmaxc/KD+c where Δfs(c) is the frequency change at a certain peptide concentration under equilibrium conditions, (Δfs)max is the maximum frequency change, c is the peptide concentration, and KD is the equilibrium constant of dissociation, we estimated the (Δfs)max and KD values for binding of the LRR11 peptide to C-CpG and B-CpG (Table 3).
Eight MHz AT-cut piezoelectric quartz crystal transducer was obtained from CH Instruments, Austin, TX, USA. The transducer was covered on both sides with thin layers of gold that served as electrodes (working area 0.2 cm^2). Prior ODNs immobilization, the crystal was carefully cleaned with basic Piranha solution (29% NH3, 30% H2O and H2O2 with volumetric 1:5:1 ratio, respectively) for 25 min. After the thorough cleaning, the crystal was positioned between two silicon O-rings in a flow-through cell. The analyte was injected into the cell using a Genie Plus syringe pump (Kent Scientific, Torrington, CT, USA) at a flow rate of 50 μL/min. Each solution was applied until the resonance frequency stabilized. The surface of the transducer was first washed with deionized water, and then 125 μg/mL NeutrAvidin (WWR International GmbH, Vienna, Austria) solution in water was applied. Approximately 15 min were required to stabilize the signal at a constant NeutrAvidin flow rate. This was followed by washing with water to rinse out all non-chemisorbed NeutrAvidin molecules. Immobilization of ODN on the gold surface of the crystals is accomplished using avidin–biotin interactions. A 1 μM 5′-biotinylated ODN solution was injected over the neutravidin-modified surface and subsequently the crystal was washed again with water. The system was then equilibrated using Hanks buffer solution. This buffer was suitable for studying LRR11–ODN binding. Then LRR11 was used at concentrations of 1, 5, 10, 50 and 100 nM […] in Hanks buffer. After each addition of LRR11, the sensor surface was washed with Hanks buffer and LRR11 with the higher concentration was added. All binding experiments were carried out at room temperature. Buffer and sample solutions were introduced in a flow-through format. A network analyzer 8712ES (Agilent Technologies, Santa Clara, CA, USA) was used to measure the impedance properties of the sensor and determine fS and Rm.

[4] = test system: vascular smooth muscle cells; settings: ref [56]; cited from earlier work
Text: (§1) RAGE is shown to bind molecules, known as damage-associated molecular patterns (DAMPs), released by cells that die or are under conditions of inflammation.

[5] = test system: human monocytes, leukotriene production; settings: RAGE-dependent pathway; ref [55]; cited from earlier work
Text: as §1

For 5′-tcgtcgttttgtcgttttgtcgtt-3′ [B-CpG], the “effect on 5-LOX activity / leukotriene synthesis” value ([1]; ODN alone, 1 µM, 20 min, then opsonized S. typhimurium 15 min, Figure 1, five independent experiments in duplicate) is listed as “increased leukotriene synthesis”, the “Σ 5-LOX metabolites” value ([1]; Table S1, 2×10^7 PMNLs, 15 min at 37 °C without or with 5 µM Chloroquine, then ODN, after 20 min 0.5×10^9 opsonized S. typhimurium for 15 min, mean ± SEM, three independent experiments) is listed as 43.9 ± 4.1 ng/107 PMNLs and the “degradation of RAGE receptor after RAGE binding” value [2] is listed as “promoted rapid lysosomal degradation of the receptor”. The KA ([3]; LRR11-B-CpG complex, KA = 1/KD) was 0.018 ± 0.006 nM⁻¹ and the “−(Δfs)max” value ([3]; LRR11 to immobilized B-CpG, Langmuir fit, Hanks buffer, room temperature, LRR11 1-100 nM, three independent experiments) was 26.6 ± 3.8 Hz.

B1: HMGB1: High-Mobility Group Box 1 (HMGB1) protein, a DAMP (protein, UniProt P09429 1-215, looked up)
High mobility group protein B1: MGKGDPKKPRGKMSSYAFFVQTCREEHKKKHPDASVNFSEFSKKCSERWKTMSAKEKGKFEDMAKADKARYEREMKTYIPPKGETKKKFKDPNAPKRPPSAFFLFCSEYRPKIKGEHPGLSIGDVAKKLGEMWNNTAADDKQPYEKKAAKLKEKYEKDIAAYRAKGKPDAAKKGVVKAEKSKKKKEEEEDEEDEEDEEEEEDEEDEDEEEDDDDE
For B1, the “RAGE expression / LTB4 production in vascular smooth muscle cells” value [4] is listed as “enhanced RAGE expression along with an increase in LTB4 production” and the “leukotriene production in human monocytes” value [5] is listed as “induce leukotriene production in human monocytes through a RAGE-dependent pathway”.
